Format in all cases: in vivo
The test system of data set [1] is Zea mays (ZEAMX). Nature of the data set: D. Pre-emergence effect on useful plants, ZEAMX. The settings on record: useful plant, application rate 80 g/ha. The source says: (§1) Seeds of monocotyledonous and dicotyledonous weed plants and crop plants were placed in plastic or organic planting pots and covered with soil. The compounds of the invention, formulated in the form of wettable powders (WP) or as emulsion concentrates (EC), were then applied to the surface of the covering soil as aqueous suspension or emulsion with addition of 0.5% additive at a water application rate equivalent to 600 l/ha (converted). After the treatment, the pots were placed in a greenhouse and kept under good growth conditions for the test plants. After about 3 weeks, the efficacy of the preparations was scored visually in comparison with untreated controls as percentages. For example, • 100% efficacy=plants have died, • 0% efficacy=like untreated control plants.
(§2) Tables D1a to D5b below show the effects of selected compounds of the general formula (I) according to table 1 on various useful plants at an application rate corresponding to 320 g/ha or less, which were obtained by the experimental procedure mentioned above.

The test system of data set [2] is Triticum aestivum (TRZAS). The experiment in a line: F. Post-emergence effect on useful plants, TRZAS. The note with it: useful plant. On the procedure: (§3) Seeds of monocotyledonous and dicotyledonous weeds and crop plants were placed in sandy loam in plastic or organic planting pots, covered with soil and cultivated in a greenhouse under controlled growth conditions. 2 to 3 weeks after sowing, the test plants were treated at the one-leaf stage. The compounds of the invention, formulated in the form of wettable powders (WP) or as emulsion concentrates (EC), were then sprayed onto the green parts of the plants as aqueous suspension or emulsion with addition of 0.5% additive at a water application rate of 600 l/ha (converted). After the test plants had been kept in the greenhouse under optimum growth conditions for about 3 weeks, the activity of the preparations was rated visually in comparison to untreated controls.
(§4) For example, • 100% efficacy=plants have died, • 0% action=like untreated control plants.
(§5) Tables F1a to F4 below show the effects of selected compounds of the general formula (I) according to table 1 on various useful plants at an application rate corresponding to 320 g/ha or less, which were obtained by the experimental procedure mentioned above.

Another data set has as its system Veronica persica (VERPE). The experiment in a line: E. Herbicidal post-emergence efficacy, VERPE. The protocol:
as §3, §4
(§6) Tables E1a to E12b below show the effects of selected compounds of the general formula (I) according to table 1 on various harmful plants at an application rate corresponding to 320 g/ha or less, which were obtained by the experimental procedure mentioned above.

Data set [3] has as its system Amaranthus retroflexus (AMARE). Nature of the data set: E. Herbicidal post-emergence efficacy, AMARE. The protocol: as §3, §4, §6
In data set [4] the test system is Zea mays (ZEAMX). Nature of the data set: F. Post-emergence effect on useful plants, ZEAMX. The note with it: useful plant. On the procedure:
as §3, §4, §5

In data set [5] the test system is Amaranthus retroflexus (AMARE). Nature of the data set: C. Herbicidal pre-emergence efficacy, AMARE. The settings on record: 320 g/ha, scored after about 3 weeks.
From the text: as §1
Tables C1a to C14b below show the effects of selected compounds of the general formula (I) according to table 1 on various harmful plants at an application rate corresponding to 320 g/ha or less, which were obtained by the experimental procedure mentioned above.

The subject of a further data set is Kochia scoparia (KCHSC). The experiment in a line: E. Herbicidal post-emergence efficacy, KCHSC. On the procedure:
as §3, §4, §6

Data set [6] deals with Triticum aestivum (TRZAS). The experiment in a line: D. Pre-emergence effect on useful plants, TRZAS. The settings on record: useful plant.
From the text: as §1, §2

For a further data set, the system named is Viola tricolor (VIOTR). Nature of the data set: E. Herbicidal post-emergence efficacy, VIOTR. On the procedure: as §3, §4, §6

Each structure is given as a SMILES string.

For the molecule `N#Cc1cccc(Oc2ncc(Cl)cn2)c1OS(=O)(=O)CCC(F)(F)F` [Example I-82], in the data set on Zea mays (ZEAMX) [1], the “Pre-emergence efficacy against ZEAMX in %” value amounted to 0%. Moreover, the “Post-emergence efficacy against TRZAS in %” value in data set [2] (application rate 80 g/ha) and in data set [2] (application rate 320 g/ha) was 0% throughout. In addition, the “Post-emergence efficacy against VERPE in %” value in the data set on Veronica persica (VERPE) (application rate 80 g/ha) and in the data set on Veronica persica (VERPE) (application rate 320 g/ha) was 100% throughout. The “Post-emergence efficacy against AMARE in %” value amounted to 90% in data set [3] (application rate 80 g/ha) and 100% in data set [3] (application rate 320 g/ha). Moreover, the “Post-emergence efficacy against ZEAMX in %” value amounted to 0% with Zea mays (ZEAMX) [4] (application rate 80 g/ha) and 20% with Zea mays (ZEAMX) [4] (application rate 320 g/ha). In addition, the “Pre-emergence efficacy against AMARE” value in data set [5] stood at 80%. Further, the “Post-emergence efficacy against KCHSC in %” value in the data set with Kochia scoparia (KCHSC) (application rate 80 g/ha) and in the data set on Kochia scoparia (KCHSC) (application rate 320 g/ha) was 90% throughout. In addition, the “Pre-emergence efficacy against TRZAS in %” value in data set [6] (application rate 80 g/ha) and in data set [6] (application rate 320 g/ha) was 0% each time. Also, the “Post-emergence efficacy against VIOTR in %” value with Viola tricolor (VIOTR) (application rate 80 g/ha) and in the data set on Viola tricolor (VIOTR) (application rate 320 g/ha) was 80% each time.

For the origin of these results see US20240174618A1, “SUBSTITUTED (2-HETEROARYLOXYPHENYL)SULFONATES, SALTS THEREOF AND THEIR USE AS HERBICIDAL AGENTS” (Bayer Aktiengesellschaft, priority 2021, published 2024).
